The text below walks through data of paper PMC2942996 (Journal of molecular biology, 2010).

For data set [1], the target named is isoprene synthase (PcISPS) (Populus tremula x Populus alba, UniProt Q9AR86, C533W/K308R/N59D). Put plainly: competitive inhibition of isoprene formation, SBSE GC-MS assay. The data set is classed as biochemical.
Substrate in the data set “enzyme kinetics”: CC(C)=CCOP(=O)(O)OP(=O)(O)O
As to the kind of experiment: enzyme kinetics. Format: biochemical, Populus tremula x Populus alba. Conditions: Mg2+ active site.

`CC(C)=CCC/C(C)=C/COP(=O)(O)OP(=O)(O)O` [GPP, geranyl diphosphate] showed a Ki in data set [1] of 550 µM.

B1: isoprene synthase (PcISPS) (Populus tremula x Populus alba; C533W/K308R/N59D) (protein)
chain: EARRSADYEPNSWDYDFLLSSDTDESIEVYKDKAKKLEAEVRREINNEKAEFLTLLELIDNVQRLGLGYRFESDIRRALDRFVSSGGFDGVTKTSLHATALSFRLLRQHGFEVSQEAFSGFKDQNGNFLENLKEDTKAILSLYEASFLALEGENILDEARVFAISHLKELSEEKIGKELAEQVNHALELPLHRRTQRLEAVWSIEAYRKKEDANQVLLELAILDYNMIQSVYQRDLRETSRWWRRVGLATKLHFARDRLIESFYWAVGVAFEPQYSDCRNSVAKMFSFVTIIDDIYDVYGTLDELELFTDAVERWDVNAINDLPDYMKLCFLALYNTINEIAYDNLKDKGENILPYLTKAWADLCNAFLQEAKWLYNKSTPTFDDYFGNAWKSSSGPLQLIFAYFAVVQNIKKEEIENLQKYHDIISRPSHIFRLCNDLASASAEIARGETANSVSCYMRTKGISEELATESVMNLIDETWKKMNKEKLGGSLFAKPFVETAINLARQSHCTYHNGDAHTSPDELTRKRVLSVITEPILPFER
With B1, the Km in “enzyme kinetics” was 3000 µM.

One may read the Ki as the equilibrium dissociation constant of an inhibitor or competing ligand from its target. Higher therefore signals a looser hold on the target. The term Km denotes the substrate concentration at which the rate is half of its maximum.
